This note sets out measurements from patent US9469653B2, “Pharmaceutical compositions for preventing or treating degenerative brain disease and method of screening the same” (KOREA INSTITUTE OF SCIENCE AND TECHNOLOGY, priority 2011, dated 2016).

Structures are written as SMILES.

Assay [1] has as its target T1, human MAO-B enzyme (Homo sapiens (Human), UniProt P27338). The assay can be described thus: Screening of MAO-B activity inhibition (Amplex Red monoamine oxidase assay kit, benzylamine substrate). The class given is biochemical. The settings on record: activity assay at 0.001, 0.01, 0.1, 1 and 10 uM.
The target in assay [2] is T1, human MAO-B enzyme. The description is as above. The format is biochemical. The settings on record: 10 uM of the synthesized compound, pargyline-corrected. The protocol: A stock solution was prepared using a human MAO-B enzyme (purchased from Aldrich) and a Amplex® Red monoamine oxidase assay kit according to a preparation manual. The kit includes a 5× reaction buffer, an Amplex® red reagent (1 mg), HRP, DMSO, H2O2, p-tyramine (substrate of MAO-A, B), benzylamine (substrate of MAO-B), clorgiline (inhibitor of MAO-A), and pargyline (inhibitor of MAO-B). Among these reagents in the kit, benzylamine was used as a substrate for MAO-B, and pargyline was used as an MAO-B inhibitor. A solution as overall substrates was prepared as follows. 200 ul of a solution of 1 mg of Amplex® red sufficiently dissolved in 200 ul of DMSO, 100 ul of a mixed solution of HRP and 1 ml of a 1× buffer, 200 ul of a solution of benzylamine dissolved in 1.2 ml of dH2O were added to 9.5 ml of a 1× buffer to reach a total volume of 10 mL, which is sufficient for 100 wells. 0.5 ul of a mixture of MAO-B inhibitor pargyline and 1 ml of dH2O was put into each well. First, the activity of MAO-B was determined using 10 uM of the synthesized compound.
96 wells were injected with positive and negative types, and the wile type. The positive type included only substrate and hydrogen peroxide, and the negative type included only substrate. For the wild type, corresponding wells were injected with the enzyme, substrate, and MAO-B inhibitor, but with no synthesized compound. Afterward, 2 ul of the synthesized compound (1 mM) was added into each well, and the human MAO-B enzyme was put only into the 1st row of wells. 0.5 ug of the human MAO-B was put into each well along with 100 ul of a 1× buffer. The human MAO-B enzyme was put into the 2nd row of the wells along with 0.5 ul of a pargyline, the MAO-B inhibitor. To reduce an experimental error for accuracy, the test was repeated three times for each compound. After 30 minutes, 100 ul of the substrate solution was added into each well in a darkroom. The test was performed in the darkroom due to light sensitivity of the Amplex® reagent. Finally, a total volume of the reaction solution per well reached 200 ul. After about 2 to 3 hours, chromophoric degrees of the samples were measured. A variation in data values for the 1st and 2nd rows of the wells indicates the pure reaction activity of the MAO-B enzyme with the substrate. Using the samples with the synthesized compound the remaining activity of MAO-B after inhibited by the synthesized compound may be determined. This is because the activities of the other enzymes excluding the MAO-B enzyme may be excluded through this method. Compounds with high inhibitory activity at a concentration of 10 uM were screened from among the synthesized compounds at a compound concentration of 10 uM.

T1 sequence (P27338 whole entry): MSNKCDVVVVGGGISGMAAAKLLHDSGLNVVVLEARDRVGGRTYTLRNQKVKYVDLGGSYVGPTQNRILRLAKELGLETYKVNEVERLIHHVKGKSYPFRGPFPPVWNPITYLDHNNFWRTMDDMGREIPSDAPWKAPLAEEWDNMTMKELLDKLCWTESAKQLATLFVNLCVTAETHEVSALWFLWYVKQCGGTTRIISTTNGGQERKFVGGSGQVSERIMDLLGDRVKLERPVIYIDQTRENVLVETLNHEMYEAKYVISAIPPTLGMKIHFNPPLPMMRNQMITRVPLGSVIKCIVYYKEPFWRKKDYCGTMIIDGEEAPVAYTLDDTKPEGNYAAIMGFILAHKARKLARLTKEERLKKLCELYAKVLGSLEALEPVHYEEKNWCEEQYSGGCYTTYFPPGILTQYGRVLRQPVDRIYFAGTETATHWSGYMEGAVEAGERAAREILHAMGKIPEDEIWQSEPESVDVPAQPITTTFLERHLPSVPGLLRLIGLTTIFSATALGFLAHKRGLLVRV

In assay [1], `Clc1ccccc1-c1nc2ccc(N3CCCCC3)nc2o1` [Example 5-39, 2-chlorophenyl-5-(piperidine-1-yl)oxazolo[5,4-b]pyridine] displayed an IC50 of 13.2 µM. Also, the “Remaining activity of MAO-B (%)” value in assay [2] came out at 0.6%.
With `Fc1cccc(-c2nc3ccc(N4CCCCC4)nc3o2)c1` [Example 5-40, 2-(3-fluorophenyl)-5-(piperidine-1-yl)oxazolo[5,4-b]pyridine], it took 0.27 µM to reach half-maximal inhibition in assay [1] (IC50). The “Remaining activity of MAO-B (%)” value in assay [2] was 13.8%.
For `Fc1ccc(-c2nc3ccc(N4CCCCC4)nc3o2)cc1` [Example 5-45, 2-(4-fluorophenyl)-5-(piperidine-1-yl)oxazolo[5,4-b]pyridine], in that order: 10.1 µM and 26.5%.
For `Brc1ccc(-c2nc3ccc(N4CCCCC4)nc3o2)cc1` [Example 5-47, 2-(4-bromophenyl)-5-(piperidine-1-yl)oxazolo[5,4-b]pyridine], in that order: 0.096 µM and 28.6%.
For `COc1ccc(-c2nc3ccc(N4CCCCC4)nc3o2)cc1` [Example 5-49, 2-(4-methoxyphenyl)-5-(piperidine-1-yl)oxazolo[5,4-b]pyridine], in that order: 1.52 µM and 15.8%.
In assay [1], `c1ccc(CNc2ccc3nc(-c4ccccc4)sc3n2)cc1` [Example 5-58, N-benzyl-2-phenylthiazolo[5,4-b]pyridine-5-amine] yielded an IC50 of 1900 µM. In assay [2], the “Remaining activity of MAO-B (%)” value amounted to 60.8%.
For `CN(Cc1ccccc1)c1ccc2nc(-c3cccc(Cl)c3)oc2n1` [Example 5-67, N-benzyl-2-(3-chlorophenyl)-N-methyloxazolo[5,4-b]pyridine-5-amine], in that order: 68.2 µM and 47.3%.
For `CN(Cc1ccccc1)c1ccc2nc(-c3ccc(Cl)cc3)oc2n1` [Example 5-68, N-benzyl-2-(4-chlorophenyl)-N-methyloxazolo[5,4-b]pyridine-5-amine], in that order: 5.08 µM and 24.1%.
For the compound `CNc1ccc2nc(-c3ccccc3)sc2n1` [Example 5-74, N-methyl-2-phenylthiazolo[5,4-b]pyridine-5-amine], the midpoint of inhibition in assay [1], the IC50, lay at 15.7 µM. Also, the “Remaining activity of MAO-B (%)” value in assay [2] turned out to be 27.2%.
For `CNc1ccc2nc(-c3cccc(F)c3)oc2n1` [Example 5-75, 2-(3-fluorophenyl)-N-methyloxazolo[5,4-b]pyridine-5-amine], in that order: 9.86 µM and 22%.
For `CNc1ccc2nc(-c3cccc(Cl)c3)oc2n1` [Example 5-76, 2-(3-chlorophenyl)-N-methyloxazolo[5,4-b]pyridine-5-amine], in that order: 2.99 µM and 4.4%.
For `CNc1ccc2nc(-c3ccc(Cl)cc3)oc2n1` [Example 5-77, 2-(4-chlorophenyl)-N-methyloxazolo[5,4-b]pyridine-5-amine], in that order: 3.02 µM and 4.14%.

The term IC50 denotes the concentration at which inhibition is half-maximal.
